Assay results as given in US8378104B2 (OSI Pharmaceuticals, LLC, priority 2010, dated 2013).
Where a name gives a salt, the structure may show the parent alone.

Molecular target: T1, TAK1-TAB1 fusion protein (Homo sapiens, UniProt O43318)
T1 construct: purchased Carna
T1 sequence (O43318 with tags, fused parts or gaps limits assumed): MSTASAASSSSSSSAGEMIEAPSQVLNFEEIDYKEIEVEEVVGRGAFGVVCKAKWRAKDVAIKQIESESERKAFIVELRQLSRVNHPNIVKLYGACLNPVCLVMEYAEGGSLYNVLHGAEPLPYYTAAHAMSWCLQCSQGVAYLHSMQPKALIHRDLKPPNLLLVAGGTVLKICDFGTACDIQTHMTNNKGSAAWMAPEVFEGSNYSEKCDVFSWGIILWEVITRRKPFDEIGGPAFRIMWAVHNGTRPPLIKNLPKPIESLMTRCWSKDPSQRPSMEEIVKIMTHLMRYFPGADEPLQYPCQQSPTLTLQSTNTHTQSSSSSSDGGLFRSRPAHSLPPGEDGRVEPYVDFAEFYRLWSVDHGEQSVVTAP
Test: TAK1 biochemical assay (AlphaScreen, GST-MAP2K7 substrate)
Settings: TAK1-TAB1 fusion protein, GST-MAP2K7 substrate; read-out: mean TAK1 IC50 (Col. A)

SMILES	IC50
C[C@]1(O)CC[C@H](n2cc(-c3cnc(N)c4oc(-c5cccc6cnccc56)cc34)cn2)CC1 [Example 75, trans-4-{4-[7-amino-2-(isoquinolin-5-yl)furo[2,3-c]pyridin-4-yl]-1H-pyrazol-1-yl}-1-methylcyclohexanol]	0.1 to 1 µM
COCCOc1cccc(-c2cc3c(-c4cnn(C5CCN(C(C)=O)CC5)c4)cnc(N)c3o2)c1 [Example 200, 1-[4-(4-{7-amino-2-[3-(2-methoxyethoxy)phenyl]furo[2,3-c]pyridin-4-yl}-1H-pyrazol-1-yl)piperidin-1-yl]ethanone]	1 to 10 µM
Cc1nn([C@H]2CC[C@H](O)CC2)cc1-c1cnc(N)c2oc(-c3csc4cnccc34)cc12 [Example 304, 4-[4-(7-amino-2-thieno[2,3-c]pyridin-3-yl-furo[2,3-c]pyridin-4-yl)-3-methyl-pyrazol-1-yl]-cyclohexanol]	1 to 10 µM
CNc1ncc(-c2cnn(C3CCN(C(C)=O)CC3)c2)c2cc(-c3cccc4cnsc34)oc12 [Example 279, 1-(4-{4-[2-(1,2-benzothiazol-7-yl)-7-(methylamino)furo[2,3-c]pyridin-4-yl]-1H-pyrazol-1-yl}piperidin-1-yl)ethanone trifluoroacetate]	0.1 to 1 µM
Nc1ncc(-c2cnn(C3CCNCC3)c2)c2cc(-c3cccc4c3sc3ccccc34)oc12 [Example 37, 2-(dibenzo[b,d]thiophen-4-yl)-4-[1-(piperidin-4-yl)-1H-pyrazol-4-yl]furo[2,3-c]pyridine-7-amine]	0.1 to 1 µM
Cc1csc(-c2cnc(N)c3oc(-c4csc5cnccc45)cc23)c1 [Example 375, 4-(4-methyl-thiophen-2-yl)-2-thieno[2,3-c]pyridin-3-yl-furo[2,3-c]pyridin-7-ylamine]	1 to 10 µM
CC(=O)Nc1ccccc1-c1cc2c(-c3cnn(C4CCN(C(C)=O)CC4)c3)cnc(N)c2o1 [Example 141, N-(2-{4-[1-(1-acetylpiperidin-4-yl)-1H-pyrazol-4-yl]-7-aminofuro[2,3-c]pyridin-2-yl}phenyl)acetamide]	> 10 µM
Nc1ncc(-c2cnn([C@H]3CC[C@H](O)CC3)c2)c2cc(-c3c(-c4cccc(F)c4)ccc4cnsc34)oc12 [Example 356, trans-4-(4-{7-amino-2-[6-(3-fluorophenyl)-1,2-benzothiazol-7-yl]furo[2,3-c]pyridin-4-yl}-1H-pyrazol-1-yl)cyclohexanol]	> 10 µM
CCNc1ncc(-c2cnn(C3CCN(C(C)=O)CC3)c2)c2cc(-c3csc4cnccc34)oc12 [Example 277, 1-(4-{4-[7-(ethylamino)-2-(thieno[2,3-c]pyridin-3-yl)furo[2,3-c]pyridin-4-yl]-1H-pyrazol-1-yl}piperidin-1-yl)ethanone trifluoroacetic acid salt]	1 to 10 µM
Nc1ncc(-c2cnn([C@H]3CC[C@H](O)CC3)c2)c2cc(-c3cc(C(F)(F)F)cc(C(F)(F)F)c3)oc12 [Example 401, trans-4-(4-{7-amino-2-[3,5-bis(trifluoromethyl)phenyl]furo[2,3-d]pyridin-4-yl}-1H-pyrazol-1-yl)cyclohexanol]	> 10 µM
Nc1ncc(-c2cnn(C3CCNCC3)c2)c2c(Cl)c(-c3ccc4[nH]ncc4c3)oc12 [Example 399, 3-chloro-2-(1H-indazol-5-yl)-4-[1-(piperidin-4-yl)-1H-pyrazol-4-yl]furo[2,3-c]pyridin-7-amine hydrochloride]	1 to 10 µM
CC(=O)N1CCC(n2cc(-c3cnc(N)c4oc(-c5ccc(OC(F)(F)F)cc5)cc34)cn2)CC1 [Example 173, 1-[4-(4-{7-amino-2-[4-(trifluoromethoxy)phenyl]furo[2,3-c]pyridin-4-yl}-1H-pyrazol-1-yl)piperidin-1-yl]ethanone]	> 10 µM
Nc1ncc(-c2cnn([C@H]3CC[C@H](O)CC3)c2)c2cc(-c3ccc4c(c3)C(=O)NC4)oc12 [Example 403, 6-{7-amino-4-[1-(trans-4-hydroxycyclohexyl)-1H-pyrazol-4-yl]furo[2,3-c]pyridin-2-yl}-2,3-dihydro-1H-isoindol-1-one]	0.1 to 1 µM
CC1(C)OCC(Cn2cc(-c3cnc(N)c4oc(-c5cccc6cnccc56)cc34)cn2)O1 (stereo not drawn) [Example 61, 4-{1-[(2,2-dimethyl-1,3-dioxolan-4-yl)methyl]-1H-pyrazol-4-yl}-2-(isoquinolin-5-yl)furo[2,3-c]pyridin-7-amine]	1 to 10 µM
CC(=O)N1CCC(n2cc(-c3cnc(N)c4oc(-c5cnc6cnccn56)cc34)cn2)CC1 [Example 274, 1-(4-{4-[7-amino-2-(imidazol[1,2-a]pyrazin-3-yl)furo[2,3-c]pyridin-4-yl]-1H-pyrazol-1-yl}piperidin-1-yl)ethanone trifluoroacetic acid salt]	1 to 10 µM
CC(=O)N1CCC(n2cc(-c3cnc(N)c4oc(-c5c[nH]c6ccccc56)cc34)cn2)CC1 [Example 188, 1-(4-{4-[7-amino-2-(1H-indol-3-yl)furo[2,3-c]pyridin-4-yl]-1H-pyrazol-1-yl}piperidin-1-yl)ethanone]	> 10 µM
CC(=O)N1CCC(n2cc(-c3cnc(N)c4oc(-c5ccccc5CO)cc34)cn2)CC1 [Example 194, 1-[4-(4-{7-amino-2-[2-(hydroxymethyl)phenyl]furo[2,3-c]pyridin-4-yl}-1H-pyrazol-1-yl)piperidin-1-yl]ethanone]	0.1 to 1 µM
Nc1ncc(-c2cnn(C3CCNCC3)c2)c2cc(-c3cccc(-c4nnn[nH]4)c3)oc12 [Example 40, 4-[1-(piperidin-4-yl)-1H-pyrazol-4-yl]-2-[3-(1H-tetrazol-5-yl)phenyl]furo[2,3-c]pyridine-7-amine]	1 to 10 µM
CN1CCC(n2cc(-c3cnc(N)c4oc(-c5cccc6ccsc56)cc34)cn2)CC1 [Example 57, 2-(1-benzothiophen-7-yl)-4-[1-(1-methylpiperidin-4-yl)-1H-pyrazol-4-yl]furo[2,3-c]pyridin-7-amine]	1 to 10 µM
Cn1ccc(-c2cnc(N)c3oc(-c4csc5cnccc45)cc23)c1 [Example 389, 4-(1-methyl-1H-pyrrol-3-yl)-2-(thieno[2,3-c]pyridin-3-yl)furo[2,3-c]pyridin-7-amine trifluoroacetate]	1 to 10 µM
COc1c(F)cccc1-c1cc2c(-c3cnn(C4CCNCC4)c3)cnc(N)c2o1 [Example 5, 2-(3-fluoro-2-methoxyphenyl)-4-[1-(piperidin-4-yl)-1H-pyrazol-4-yl]furo[2,3-c]pyridin-7-amine dihydrochloride]	1 to 10 µM
CC(=O)N1CCC(n2cc(-c3cnc(N)c4oc(-c5cccc(S(N)(=O)=O)c5)cc34)cn2)CC1 [Example 102, 3-{4-[1-(1-acetylpiperidin-4-yl)-1H-pyrazol-4-yl]-7-aminofuro[2,3-c]pyridin-2-yl}benzenesulfonamide]	1 to 10 µM
CC(=O)N1CCC(n2cc(-c3cnc(N)c4oc(C5=CCC6(CC5)OCCO6)cc34)cn2)CC1 [Example 408, 1-(4-{4-[7-amino-2-(1,4-dioxaspiro[4.5]dec-7-en-8-yl)furo[2,3-c]pyridin-4-yl]-1H-pyrazol-1-yl}piperidin-1-yl)ethanone]	> 10 µM
CC(=O)N1CCC(n2cc(-c3cnc(N)c4oc(-c5c(F)ccc6ncsc56)cc34)cn2)CC1 [Example 358, 1-(4-{4-[7-amino-2-(6-fluoro-1,3-benzothiazol-7-yl)furo[2,3-c]pyridin-4-yl]-1H-pyrazol-1-yl}piperidin-1-yl)ethanone bis(trifluoroacetate)]	0.1 to 1 µM
